Test results as given in ChEMBL document CHEMBL6134768, “Design, synthesis, and structure-activity relationship studies of 6H-benzo[b]indeno[1,2-d]thiophen-6-one derivatives as DYRK1A/CLK1/CLK4/haspin inhibitors” (RSC Med Chem, 2025).
Values belong to the compound of their own block, whether it stands above or below them.

Legend:
[1] = target: Dual specificity tyrosine-phosphorylation-regulated kinase 1B (Homo sapiens) (UniProt Q9Y463); assay: Inhibition of human GST-tagged DYRK1B extracted from Escherichia coli assessed as residual activity using gamma-32 ATP and KKISGRLSPIMTEQ as substrate at 1 uM by radiometric kinase assay relative to control
Chain of Dual specificity tyrosine-phosphorylation-regulated kinase 1B (Homo sapiens) (Q9Y463 whole entry, looked up): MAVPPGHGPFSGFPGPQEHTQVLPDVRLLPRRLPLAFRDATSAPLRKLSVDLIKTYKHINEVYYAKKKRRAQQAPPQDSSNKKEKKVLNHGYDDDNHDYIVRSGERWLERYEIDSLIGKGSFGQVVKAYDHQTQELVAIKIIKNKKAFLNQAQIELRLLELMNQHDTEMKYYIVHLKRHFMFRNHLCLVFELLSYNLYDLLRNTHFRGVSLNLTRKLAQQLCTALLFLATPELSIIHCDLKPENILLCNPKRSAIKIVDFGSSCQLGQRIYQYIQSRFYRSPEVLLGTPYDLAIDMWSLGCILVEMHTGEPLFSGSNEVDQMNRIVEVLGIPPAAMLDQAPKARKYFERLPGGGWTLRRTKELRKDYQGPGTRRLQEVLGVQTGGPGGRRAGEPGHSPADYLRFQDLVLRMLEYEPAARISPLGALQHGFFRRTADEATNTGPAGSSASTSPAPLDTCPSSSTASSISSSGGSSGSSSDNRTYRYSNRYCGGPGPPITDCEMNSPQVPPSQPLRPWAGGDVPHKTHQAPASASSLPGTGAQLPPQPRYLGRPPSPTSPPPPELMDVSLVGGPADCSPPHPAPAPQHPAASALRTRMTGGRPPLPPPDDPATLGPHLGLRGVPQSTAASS

[2] = Metabolic stability in rat liver microsomes assessed as half life; format: ADME, Microsome
[3] = rat, microsomes
[4] = target: Dual specificity protein kinase CLK1 (Homo sapiens) (UniProt P49759); assay: Inhibition of CLK1 (unknown origin) at 0.35 uM by radiometric assay relative to control
Chain of Dual specificity protein kinase CLK1 (Homo sapiens) (P49759 whole entry, looked up): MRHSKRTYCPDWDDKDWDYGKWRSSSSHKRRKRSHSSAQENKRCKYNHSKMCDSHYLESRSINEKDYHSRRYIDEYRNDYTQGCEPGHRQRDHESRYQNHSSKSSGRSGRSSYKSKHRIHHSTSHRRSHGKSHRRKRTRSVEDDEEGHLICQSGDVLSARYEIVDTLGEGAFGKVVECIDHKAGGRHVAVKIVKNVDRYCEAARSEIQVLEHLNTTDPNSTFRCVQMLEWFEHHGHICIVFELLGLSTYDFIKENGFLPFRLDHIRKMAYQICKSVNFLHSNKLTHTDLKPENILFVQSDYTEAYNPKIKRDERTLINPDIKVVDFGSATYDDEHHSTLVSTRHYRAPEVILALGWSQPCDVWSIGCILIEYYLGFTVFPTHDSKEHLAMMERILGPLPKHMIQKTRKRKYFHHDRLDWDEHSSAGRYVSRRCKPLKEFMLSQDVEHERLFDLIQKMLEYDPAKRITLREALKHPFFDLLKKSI

[5] = target: BDNF/NT-3 growth factors receptor (Homo sapiens) (UniProt Q16620); assay: Inhibition of NTRK2 (TRKB) (unknown origin) at 0.35 uM by Z-LYTE kinase activity assay relative to control
[6] = target: Dual specificity protein kinase CLK3 (Homo sapiens) (UniProt P49761); assay: Inhibition of CLK3 (unknown origin) at 0.35 uM by Z-LYTE kinase activity assay relative to control
[7] = target: T1, Dual specificity protein kinase CLK4 (Homo sapiens, UniProt Q9HAZ1); assay: Inhibition of CLK4 (unknown origin) by LanthaScreen kinase binding assay relative to control
Target sequence in this assay (Q9HAZ1 whole entry): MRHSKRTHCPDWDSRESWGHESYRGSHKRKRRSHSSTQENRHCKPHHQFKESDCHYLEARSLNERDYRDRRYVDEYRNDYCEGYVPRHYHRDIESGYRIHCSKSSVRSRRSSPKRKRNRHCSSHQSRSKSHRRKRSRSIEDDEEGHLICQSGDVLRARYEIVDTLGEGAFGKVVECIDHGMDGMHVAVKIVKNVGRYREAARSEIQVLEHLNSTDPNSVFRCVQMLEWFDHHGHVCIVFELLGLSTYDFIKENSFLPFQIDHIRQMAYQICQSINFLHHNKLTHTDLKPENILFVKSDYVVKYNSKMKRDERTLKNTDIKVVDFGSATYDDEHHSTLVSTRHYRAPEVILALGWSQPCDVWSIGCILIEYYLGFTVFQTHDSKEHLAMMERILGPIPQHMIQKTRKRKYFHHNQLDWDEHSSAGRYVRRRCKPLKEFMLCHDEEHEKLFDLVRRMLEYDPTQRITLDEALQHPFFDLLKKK

[8] = target: Homeodomain-interacting protein kinase 1 (Homo sapiens) (UniProt Q86Z02); assay: Inhibition of HIPK1 (Myak) (unknown origin) at 0.35 uM by Z-LYTE kinase activity assay relative to control
Chain of Homeodomain-interacting protein kinase 1 (Homo sapiens) (Q86Z02 whole entry, looked up): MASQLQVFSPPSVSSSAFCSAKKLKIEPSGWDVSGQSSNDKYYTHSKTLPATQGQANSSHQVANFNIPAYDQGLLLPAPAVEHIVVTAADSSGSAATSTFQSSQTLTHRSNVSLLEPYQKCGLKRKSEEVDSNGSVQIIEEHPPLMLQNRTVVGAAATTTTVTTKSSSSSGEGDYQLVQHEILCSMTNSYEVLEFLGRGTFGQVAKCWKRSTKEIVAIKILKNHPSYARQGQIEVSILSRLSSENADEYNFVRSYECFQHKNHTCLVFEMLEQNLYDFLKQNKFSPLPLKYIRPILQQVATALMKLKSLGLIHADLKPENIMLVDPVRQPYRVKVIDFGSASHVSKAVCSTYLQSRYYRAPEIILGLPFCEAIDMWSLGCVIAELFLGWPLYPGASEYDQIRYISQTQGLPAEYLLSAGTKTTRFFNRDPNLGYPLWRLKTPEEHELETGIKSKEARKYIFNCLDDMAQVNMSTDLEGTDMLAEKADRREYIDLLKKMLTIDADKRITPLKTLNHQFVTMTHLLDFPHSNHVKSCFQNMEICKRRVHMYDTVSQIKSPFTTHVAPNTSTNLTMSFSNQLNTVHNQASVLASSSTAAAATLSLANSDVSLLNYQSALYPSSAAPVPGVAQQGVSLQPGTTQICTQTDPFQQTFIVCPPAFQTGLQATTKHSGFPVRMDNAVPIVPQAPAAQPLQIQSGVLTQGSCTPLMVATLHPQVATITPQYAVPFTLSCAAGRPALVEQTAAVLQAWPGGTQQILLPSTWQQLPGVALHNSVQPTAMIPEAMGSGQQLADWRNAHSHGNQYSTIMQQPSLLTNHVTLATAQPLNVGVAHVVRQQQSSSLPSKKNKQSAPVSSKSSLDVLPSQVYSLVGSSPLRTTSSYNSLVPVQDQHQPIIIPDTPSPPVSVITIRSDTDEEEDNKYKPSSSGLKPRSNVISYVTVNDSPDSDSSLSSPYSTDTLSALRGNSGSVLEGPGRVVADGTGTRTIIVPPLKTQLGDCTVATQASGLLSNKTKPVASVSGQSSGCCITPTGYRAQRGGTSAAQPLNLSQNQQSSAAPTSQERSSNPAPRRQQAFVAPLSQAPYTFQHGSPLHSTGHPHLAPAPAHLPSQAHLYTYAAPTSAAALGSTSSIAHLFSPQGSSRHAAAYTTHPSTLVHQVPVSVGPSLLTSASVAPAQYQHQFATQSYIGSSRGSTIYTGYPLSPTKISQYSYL

[9] = target: Myosin light chain kinase 2, skeletal/cardiac muscle (Homo sapiens) (UniProt Q9H1R3); assay: Inhibition of MLCK2 (unknown origin) at 0.35 uM by LanthaScreen kinase binding assay relative to control
[10] = target: Serine/threonine-protein kinase 33 (Homo sapiens) (UniProt Q9BYT3); assay: Inhibition of STK33 (unknown origin) at 0.35 uM by LanthaScreen kinase binding assay relative to control
[11] = target: T1, Dual specificity protein kinase CLK4; assay: Inhibition of CLK4 (unknown origin) at 0.35 uM by LanthaScreen kinase binding assay relative to control
Target sequence in this assay (Q9HAZ1 whole entry, looked up): as the sequence (Q9HAZ1 whole entry) above

[12] = target: T1, Dual specificity protein kinase CLK4; assay: Inhibition of CLK4 (unknown origin) at 0.35 uM by radiometric assay relative to control
Target sequence in this assay (Q9HAZ1 whole entry, looked up): as the sequence (Q9HAZ1 whole entry) above

[13] = target: Cyclin-dependent kinase 5/CDK5 activator 1 (Homo sapiens) (UniProt Q00535+Q15078); assay: Inhibition of CDK5/p25 (unknown origin) at 0.35 uM by Z-LYTE kinase activity assay relative to control; format: protein-complex assay
Chain of Cyclin-dependent kinase 5/CDK5 activator 1 (Homo sapiens) (Q00535 whole entry): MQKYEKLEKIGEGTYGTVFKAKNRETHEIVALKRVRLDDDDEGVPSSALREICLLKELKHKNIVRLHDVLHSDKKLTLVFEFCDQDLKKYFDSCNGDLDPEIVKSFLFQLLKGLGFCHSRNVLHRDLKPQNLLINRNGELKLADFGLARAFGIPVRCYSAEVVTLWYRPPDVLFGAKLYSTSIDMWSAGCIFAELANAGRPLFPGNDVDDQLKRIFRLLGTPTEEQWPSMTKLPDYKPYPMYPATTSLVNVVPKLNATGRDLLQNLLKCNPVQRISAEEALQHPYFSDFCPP
Chain of Cyclin-dependent kinase 5/CDK5 activator 1 (Homo sapiens) (Q15078 99-307 partner limits assumed): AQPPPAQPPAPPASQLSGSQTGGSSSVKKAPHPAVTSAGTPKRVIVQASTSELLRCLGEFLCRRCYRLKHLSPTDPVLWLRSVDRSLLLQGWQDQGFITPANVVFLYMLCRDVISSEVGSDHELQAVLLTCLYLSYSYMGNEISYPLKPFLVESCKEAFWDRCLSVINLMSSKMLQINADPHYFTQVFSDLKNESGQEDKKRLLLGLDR

[14] = target: T2, Dual specificity tyrosine-phosphorylation-regulated kinase 2 (Homo sapiens) (UniProt Q92630); assay: Inhibition of DYRK2 (unknown origin) at 0.35 uM by LanthaScreen kinase binding assay relative to control
T2 sequence (whole entry): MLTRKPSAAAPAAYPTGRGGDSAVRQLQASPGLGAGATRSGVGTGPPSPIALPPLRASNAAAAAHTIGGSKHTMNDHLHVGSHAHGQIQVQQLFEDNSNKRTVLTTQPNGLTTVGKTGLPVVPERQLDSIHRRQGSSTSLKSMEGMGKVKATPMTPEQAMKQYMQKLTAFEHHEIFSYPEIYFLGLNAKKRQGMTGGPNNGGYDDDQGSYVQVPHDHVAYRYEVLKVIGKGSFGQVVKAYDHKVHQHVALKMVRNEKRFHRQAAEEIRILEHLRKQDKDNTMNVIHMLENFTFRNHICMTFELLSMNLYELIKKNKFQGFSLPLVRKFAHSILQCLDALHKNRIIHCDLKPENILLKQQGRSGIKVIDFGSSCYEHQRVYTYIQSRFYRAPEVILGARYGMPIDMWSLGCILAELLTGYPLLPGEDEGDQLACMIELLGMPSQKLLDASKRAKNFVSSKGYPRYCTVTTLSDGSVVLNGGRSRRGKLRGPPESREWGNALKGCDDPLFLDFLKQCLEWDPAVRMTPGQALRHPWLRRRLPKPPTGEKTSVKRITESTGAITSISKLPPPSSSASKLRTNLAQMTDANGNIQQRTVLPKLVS

U-87 MG = assay: cells; conditions: Homo sapiens, 72 h
[15] = target: Epidermal growth factor receptor (Homo sapiens) (UniProt P00533); assay: Inhibition of EGFR (ErbB1) (unknown origin) at 0.35 uM by Z-LYTE kinase activity assay relative to control
[16] = target: Dual specificity tyrosine-phosphorylation-regulated kinase 1B (Homo sapiens) (UniProt Q9Y463); assay: Inhibition of DYRK1B (unknown origin) at 0.35 uM by radiometric assay relative to control
[17] = target: SRSF protein kinase 2 (Homo sapiens) (UniProt P78362); assay: Inhibition of SRPK2 (unknown origin) at 0.35 uM by Z-LYTE kinase activity assay relative to control
[18] = target: T3, Serine/threonine-protein kinase haspin (Homo sapiens) (UniProt Q8TF76); assay: Inhibition of GSG2 (haspin) (unknown origin) at 0.35 uM by radiometric assay relative to control
T3 sequence (whole entry): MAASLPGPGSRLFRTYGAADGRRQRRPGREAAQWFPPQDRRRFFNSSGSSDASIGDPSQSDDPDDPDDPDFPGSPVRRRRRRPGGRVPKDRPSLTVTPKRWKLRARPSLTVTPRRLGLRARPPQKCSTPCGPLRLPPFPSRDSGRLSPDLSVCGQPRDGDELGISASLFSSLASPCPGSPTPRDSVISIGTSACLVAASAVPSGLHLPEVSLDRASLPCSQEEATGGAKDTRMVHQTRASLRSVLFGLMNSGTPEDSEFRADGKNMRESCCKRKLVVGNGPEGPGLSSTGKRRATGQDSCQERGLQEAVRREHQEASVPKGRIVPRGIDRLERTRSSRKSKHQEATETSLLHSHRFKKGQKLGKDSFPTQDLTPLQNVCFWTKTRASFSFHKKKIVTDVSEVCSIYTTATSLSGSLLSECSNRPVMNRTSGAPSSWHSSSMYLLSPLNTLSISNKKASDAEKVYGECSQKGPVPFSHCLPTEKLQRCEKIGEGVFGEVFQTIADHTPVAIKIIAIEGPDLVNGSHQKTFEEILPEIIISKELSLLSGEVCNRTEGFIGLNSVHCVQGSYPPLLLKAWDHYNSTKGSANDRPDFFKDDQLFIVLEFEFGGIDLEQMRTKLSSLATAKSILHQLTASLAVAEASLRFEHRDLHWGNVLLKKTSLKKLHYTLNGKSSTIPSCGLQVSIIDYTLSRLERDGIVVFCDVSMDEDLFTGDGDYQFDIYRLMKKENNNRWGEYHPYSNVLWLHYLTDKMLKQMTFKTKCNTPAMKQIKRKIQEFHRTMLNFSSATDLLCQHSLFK

[19] = target: T3, Serine/threonine-protein kinase haspin (Homo sapiens); assay: Inhibition of GSG2 (haspin) (unknown origin) at 0.35 uM by Adapta kinase activity assay relative to control
[20] = target: SRSF protein kinase 1 (Homo sapiens) (UniProt Q96SB4); assay: Inhibition of SRPK1 (unknown origin) at 0.35 uM by Z-LYTE kinase activity assay relative to control
Chain of SRSF protein kinase 1 (Homo sapiens) (Q96SB4 whole entry): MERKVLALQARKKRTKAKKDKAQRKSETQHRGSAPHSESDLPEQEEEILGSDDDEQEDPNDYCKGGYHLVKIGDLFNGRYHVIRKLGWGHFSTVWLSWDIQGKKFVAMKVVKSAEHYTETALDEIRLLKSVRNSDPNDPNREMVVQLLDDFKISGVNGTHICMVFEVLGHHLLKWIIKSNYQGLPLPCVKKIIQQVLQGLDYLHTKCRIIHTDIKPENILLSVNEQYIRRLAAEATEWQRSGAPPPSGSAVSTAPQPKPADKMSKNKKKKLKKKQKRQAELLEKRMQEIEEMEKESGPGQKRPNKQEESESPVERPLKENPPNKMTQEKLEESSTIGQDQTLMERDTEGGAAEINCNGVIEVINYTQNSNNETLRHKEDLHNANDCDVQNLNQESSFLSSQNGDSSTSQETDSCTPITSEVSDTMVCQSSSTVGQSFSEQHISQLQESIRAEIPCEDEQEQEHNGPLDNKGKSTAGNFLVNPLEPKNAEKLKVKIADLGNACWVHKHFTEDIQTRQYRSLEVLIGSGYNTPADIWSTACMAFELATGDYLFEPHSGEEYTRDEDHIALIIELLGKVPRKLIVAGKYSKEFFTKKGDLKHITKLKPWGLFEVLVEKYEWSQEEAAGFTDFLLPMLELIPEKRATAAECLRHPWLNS

[21] = target: T4, Serine/threonine-protein kinase haspin (Homo sapiens, UniProt Q8TF76); assay: Inhibition of GSG2 (haspin) (unknown origin) by Adapta kinase activity assay relative to control
T4 sequence (Q8TF76 whole entry): T3 sequence (whole entry)

[22] = target: Dual specificity protein kinase CLK1 (Homo sapiens) (UniProt P49759); assay: Inhibition of CLK1 (unknown origin) at 0.35 uM by Z-LYTE kinase activity assay relative to control
[23] = target: Serine/threonine-protein kinase pim-1 (Homo sapiens) (UniProt P11309); assay: Inhibition of PIM1 (unknown origin) at 0.35 uM by Z-LYTE kinase activity assay relative to control
Chain of Serine/threonine-protein kinase pim-1 (Homo sapiens) (P11309 whole entry, looked up): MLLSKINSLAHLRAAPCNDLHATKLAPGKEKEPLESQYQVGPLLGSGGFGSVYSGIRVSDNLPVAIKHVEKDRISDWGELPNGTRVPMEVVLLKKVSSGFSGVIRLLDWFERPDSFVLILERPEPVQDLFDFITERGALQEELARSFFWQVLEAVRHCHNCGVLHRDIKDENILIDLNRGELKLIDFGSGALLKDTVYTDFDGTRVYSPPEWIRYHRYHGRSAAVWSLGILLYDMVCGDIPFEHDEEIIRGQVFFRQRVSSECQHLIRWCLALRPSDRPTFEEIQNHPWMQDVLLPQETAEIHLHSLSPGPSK

[24] = target: Dual specificity tyrosine-phosphorylation-regulated kinase 1B (Homo sapiens) (UniProt Q9Y463); assay: Inhibition of DYRK1B (unknown origin) at 0.35 uM by Z-LYTE kinase activity assay relative to control
[25] = target: T1, Dual specificity protein kinase CLK4; assay: Inhibition of CLK4 (unknown origin) by radiometric assay relative to control
Target sequence in this assay (Q9HAZ1 whole entry): as the sequence (Q9HAZ1 whole entry) above

[26] = target: T4, Serine/threonine-protein kinase haspin; assay: Inhibition of GSG2 (haspin) (unknown origin) by radiometric assay relative to control
[27] = target: T5, Dual specificity tyrosine-phosphorylation-regulated kinase 3 (Homo sapiens) (UniProt O43781); assay: Inhibition of DYRK3 (unknown origin) at 0.35 uM by Z-LYTE kinase activity assay relative to control
T5 sequence (whole entry): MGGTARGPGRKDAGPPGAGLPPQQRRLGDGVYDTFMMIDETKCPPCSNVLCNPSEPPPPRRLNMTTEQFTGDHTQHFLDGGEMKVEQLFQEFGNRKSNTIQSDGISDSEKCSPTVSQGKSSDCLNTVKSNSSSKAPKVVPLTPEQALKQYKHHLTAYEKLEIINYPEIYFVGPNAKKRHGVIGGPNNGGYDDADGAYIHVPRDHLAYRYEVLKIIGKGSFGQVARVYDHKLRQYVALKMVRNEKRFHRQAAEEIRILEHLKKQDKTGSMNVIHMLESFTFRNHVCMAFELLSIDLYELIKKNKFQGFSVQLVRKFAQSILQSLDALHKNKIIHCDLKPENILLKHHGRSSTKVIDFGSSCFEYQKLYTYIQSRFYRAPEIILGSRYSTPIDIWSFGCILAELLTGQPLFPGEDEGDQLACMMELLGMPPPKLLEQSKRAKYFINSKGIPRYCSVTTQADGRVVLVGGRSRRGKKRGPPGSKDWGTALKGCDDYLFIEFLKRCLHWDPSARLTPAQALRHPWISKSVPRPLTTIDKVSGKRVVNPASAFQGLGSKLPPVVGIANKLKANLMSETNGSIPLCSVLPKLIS

[28] = target: T6, Serine/threonine-protein kinase 17A (Homo sapiens) (UniProt Q9UEE5); assay: Inhibition of STK17A (DRAK1) (unknown origin) at 0.35 uM by LanthaScreen kinase binding assay relative to control
T6 sequence (whole entry): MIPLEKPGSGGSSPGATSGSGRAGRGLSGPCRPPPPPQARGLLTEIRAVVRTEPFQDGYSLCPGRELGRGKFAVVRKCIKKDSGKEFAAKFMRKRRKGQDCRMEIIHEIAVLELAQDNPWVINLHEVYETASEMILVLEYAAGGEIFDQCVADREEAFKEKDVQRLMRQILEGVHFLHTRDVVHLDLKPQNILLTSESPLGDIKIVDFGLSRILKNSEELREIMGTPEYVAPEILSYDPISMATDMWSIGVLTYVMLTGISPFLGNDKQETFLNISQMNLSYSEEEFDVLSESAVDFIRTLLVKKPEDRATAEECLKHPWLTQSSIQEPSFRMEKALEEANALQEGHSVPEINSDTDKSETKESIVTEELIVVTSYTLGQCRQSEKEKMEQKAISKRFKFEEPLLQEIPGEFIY

cells = conditions: Homo sapiens, U373 MG, 72 h
[29] = Metabolic stability in rat liver microsomes assessed as degradation; format: ADME, Microsome; conditions: read-out: Drug degradation

- Activity ([1]; INHIBITOR): 7%
SMILES: COc1ccc2sc3c(c2c1)-c1ccccc1C3=O

- t1/2 [2]: < 5 min
- Activity [1]: 68%
- CLH [3]: > 500 µL/min/mg
SMILES: COc1ccc2sc3c(c2c1)-c1c(OC)cccc1C3=O

- inhibition [4]: 93%
- Activity [1]: 93%
- inhibition [5]: 0%
- inhibition [6]: 7%
- IC50 [7]: 14 nM
- inhibition [8]: 0%
- inhibition [9]: 15%
- inhibition [10]: 8%
- inhibition [11]: 95%
- inhibition [12]: 91%
- inhibition [13]: 8%
- inhibition [14]: 66%
- IC50 (U-87 MG): 45900 nM
- inhibition [15]: 0%
- inhibition [16]: 47%
- inhibition [17]: 0%
- inhibition [18]: 88%
- inhibition [19]: 95%
- inhibition [20]: 6%
- IC50 [21]: 28 nM
- inhibition [22]: 16%
- inhibition [23]: 0%
- inhibition [24]: 57%
- IC50 [25]: 26 nM
- IC50 [26]: 76 nM
- inhibition [27]: 5%
- inhibition [28]: 42%
SMILES: COc1ccc2c(c1)C(=O)c1sc3ccc(O)cc3c1-2

- t1/2 [2]: 16.8 min
- Activity [1]: 78%
- Activity ([1]; INHIBITOR): < 5%
- CLH [3]: 93.9 µL/min/mg
SMILES: COc1ccc2c(c1)C(=O)c1sc3ccc(F)cc3c1-2

- Activity ([1]; INHIBITOR): < 5%
- CLH [3]: 92.4 µL/min/mg
SMILES: COc1ccc2c(c1)-c1c(sc3ccc(OC)cc13)C2=O

- Activity ([1]; INHIBITOR): < 5%
- IC50 (U-87 MG): > 100000 nM
- IC50 (cells): > 100000 nM
SMILES: O=C1c2ccccc2-c2c1sc1ccc(O)cc21

- t1/2 [2]: 24.4 min
- Activity ([1]; INHIBITOR): < 5%
- CLH [3]: 94.8 µL/min/mg
SMILES: COc1ccc2c(c1)C(=O)c1sc3ccccc3c1-2

- t1/2 [2]: < 5 min
- Activity ([1]; INHIBITOR): < 5%
- CLH [3]: > 500 µL/min/mg
SMILES: COc1cccc2c1C(=O)c1sc3ccccc3c1-2

- Activity [1]: 89%
- metabolised [29]: 50%
SMILES: COc1ccc2c(c1)-c1c(sc3ccc(O)cc13)C2=O

- t1/2 [2]: 6.5 min
- Activity ([1]; INHIBITOR): < 5%
- CLH [3]: 355.5 µL/min/mg
SMILES: COc1cccc2c1-c1c(sc3ccccc13)C2=O

- t1/2 [2]: 33.7 min
- Activity ([1]; INHIBITOR): < 5%
- CLH [3]: 68.8 µL/min/mg
SMILES: COc1ccc2c(c1)-c1c(sc3ccccc13)C2=O

- Activity [1]: 78%
SMILES: COc1cccc2c1C(=O)c1sc3ccc(O)cc3c1-2

- t1/2 [2]: 18.9 min
- Activity ([1]; INHIBITOR): < 5%
- CLH [3]: 122 µL/min/mg
SMILES: COc1ccc2c(c1)C(=O)c1sc3ccc(OC)cc3c1-2
